# Measured values taken from patent US20140228377A1, “METHYLPIPERIDINE DERIVATIVE” (TAISHO PHARMACEUTICAL CO., LTD., priority 2011, published 2014).
# pIC50: −log10 of the molar value.
# Columns and labels:
# [1] = biological target: T1, orexin-2 receptor (hOX2R) (Homo sapiens, UniProt O43614); assay: Orexin antagonistic activity assay (intracellular Ca2+, FDSS) in CHO cells expressing hOX2R; assay type: cell-based; settings: CHO cells expressing hOX2R; ligand peptide 3 nM; Fluo-3 maximum fluorescence intensity; read-out: IC50 value OX2
# T1 construct: expressed in transfected cells; host or cells: Chinese hamster ovary (CHO) cells
# T1 sequence (O43614 1-444): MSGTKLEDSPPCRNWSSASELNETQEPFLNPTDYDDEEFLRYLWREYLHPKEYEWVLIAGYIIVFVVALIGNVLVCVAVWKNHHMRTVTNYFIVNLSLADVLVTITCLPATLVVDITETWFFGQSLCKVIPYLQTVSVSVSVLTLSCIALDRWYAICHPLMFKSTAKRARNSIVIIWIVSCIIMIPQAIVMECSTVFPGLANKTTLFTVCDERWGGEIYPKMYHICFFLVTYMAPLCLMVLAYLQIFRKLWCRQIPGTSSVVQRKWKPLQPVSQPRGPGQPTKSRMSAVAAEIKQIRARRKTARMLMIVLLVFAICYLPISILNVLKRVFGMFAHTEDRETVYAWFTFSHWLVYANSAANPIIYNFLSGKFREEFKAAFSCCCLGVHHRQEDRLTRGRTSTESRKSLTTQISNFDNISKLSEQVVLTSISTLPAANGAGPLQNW
# Outline: (§1)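 Recombinant CHO cells, Fluo-3 AM loaded, were preincubated 30 min with compound, then stimulated with a modified orexin-A peptide (300 pM for hOX1R, 3 nM for hOX2R). Peak Ca2+ fluorescence read each second for 3 min; IC50 from concentration-response, normalised to ligand-only (100%) and no-ligand (0%) wells.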
# [2] = biological target: T2, human orexin-1 receptor (hOX1R) (Homo sapiens, UniProt O43613); assay: Orexin antagonistic activity assay (intracellular Ca2+, FDSS) in CHO cells expressing hOX1R; assay type: cell-based; settings: CHO cells expressing hOX1R; ligand peptide 300 pM; Fluo-3 maximum fluorescence intensity; read-out: IC50 value OX1
# T2 construct: expressed in transfected cells; host or cells: Chinese hamster ovary (CHO) cells
# T2 sequence (O43613 1-425): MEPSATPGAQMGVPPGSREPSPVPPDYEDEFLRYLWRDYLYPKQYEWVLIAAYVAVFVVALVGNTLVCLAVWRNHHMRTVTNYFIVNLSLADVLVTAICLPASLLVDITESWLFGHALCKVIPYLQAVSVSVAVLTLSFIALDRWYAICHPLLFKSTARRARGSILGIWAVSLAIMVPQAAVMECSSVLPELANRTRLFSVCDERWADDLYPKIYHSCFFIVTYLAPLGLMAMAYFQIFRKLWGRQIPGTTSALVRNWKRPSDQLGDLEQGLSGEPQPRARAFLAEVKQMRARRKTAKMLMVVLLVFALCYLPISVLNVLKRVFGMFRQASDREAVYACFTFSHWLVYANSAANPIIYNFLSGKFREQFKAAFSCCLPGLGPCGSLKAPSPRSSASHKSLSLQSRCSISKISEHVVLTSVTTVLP
# Outline: as §1
# [3] = Metabolic stability test using human liver microsomes; assay type: in vitro ADME; settings: human liver microsomes 0.25 mg protein/mL, test compound 1 μM, 37° C., 15 minutes, NADPH production system
# Method: The stability test on a test compound was conducted according to the following method using human liver microsomes (Ms):
# The test compound was incubated (37° C., 15 minutes) together with human liver microsome fraction (XenoTech LLC; H630B, lot. 0810472) in a 0.1 M phosphate buffer solution (pH 7.4) in the presence of a NADPH production system (0.16 mM NADP+, 2.5 mM MgCl2, and 1.5 mM glucose-6-phosphate). The final concentrations of the test compound and the liver Ms protein were set to 1 μM and 0.25 mg protein/mL, respectively. After the incubation, the reaction mixture was supplemented with a 2-fold volume of DMSO, stirred, and then centrifuged at 2150×g (4° C., 10 minutes). The obtained supernatant was analyzed using a liquid chromatography tandem mass spectrometry (LC-MS/MS) system. The lower limit of quantification was 0.1 μM.
Compound,pIC50 [1],pIC50 [2],rate of metabolism [3]
"Cc1ccc(-n2nccn2)c(C(=O)N2C[C@H](c3nc4cc(Cl)ccc4o3)CC[C@H]2C)n1 [Example 1, [(2R,5R)-5-(5-Chloro-1,3-benzoxazol-2-yl)-2-methylpiperidin-1-yl][6-methyl-3-(2H-1,2,3-triazol-2-yl)pyridin-2-yl]methanone]",7.91,7.96,27.8%
"Cc1ccc(-n2nccn2)c(C(=O)N2C[C@H](c3nc4cc(F)cc(F)c4o3)CC[C@H]2C)n1 [Example 64, [(2R,5R)-5-(5,7-Difluoro-1,3-benzoxazol-2-yl)-2-methylpiperidin-1-yl][6-methyl-3-(2H-1,2,3-triazol-2-yl)pyridin-2-yl]methanone]",7.55,6.84,–
"Cc1ccc(-n2nccn2)c(C(=O)N2C[C@H](c3nc4cccc(F)c4o3)CC[C@H]2C)c1 [Example 65, [(2R,5R)-5-(7-Fluoro-1,3-benzoxazol-2-yl)-2-methylpiperidin-1-yl][5-methyl-2-(2H-1,2,3-triazol-2-yl)phenyl]methanone]",8.18,8.07,–
"Cc1ccc(-n2nccn2)c(C(=O)N2C[C@H](c3nc4c(F)cccc4o3)CC[C@H]2C)c1 [Example 66, [(2R,5R)-5-(4-Fluoro-1,3-benzoxazol-2-yl)-2-methylpiperidin-1-yl][5-methyl-2-(2H-1,2,3-triazol-2-yl)phenyl]methanone]",7.69,7.44,–
"Cc1ccc(-c2ncccn2)c(C(=O)N2C[C@H](c3nc4c(F)cccc4o3)CC[C@H]2C)c1 [Example 67, [(2R,5R)-5-(4-Fluoro-1,3-benzoxazol-2-yl)-2-methylpiperidin-1-yl][5-methyl-2-(pyrimidin-2-yl)phenyl]methanone]",7.59,7.56,–
"C[C@@H]1CC[C@@H](c2nc3c(Cl)cccc3o2)CN1C(=O)c1cc(F)ccc1-c1ncccn1 [Example 70, [(2R,5R)-5-(4-Chloro-1,3-benzoxazol-2-yl)-2-methylpiperidin-1-yl][5-fluoro-2-(pyrimidin-2-yl)phenyl]methanone]",7.79,7.91,–
"C[C@@H]1CC[C@@H](c2nc3cc(Cl)cnc3o2)CN1C(=O)c1ccc(F)cc1-n1nccn1 [Example 72, [(2R,5R)-5-(6-Chloro[1,3]oxazolo[5,4-b]pyridin-2-yl)-2-methylpiperidin-1-yl][4-fluoro-2-(2H-1,2,3-triazol-2-yl)phenyl]methanone]",7.09,6.39,–

# Compounds with a higher pIC50 [1], results first:
pIC50 [1],pIC50 [2],rate of metabolism [3],Compound
8.21,6.97,–,"Cc1ccc(-n2nccn2)c(C(=O)N2C[C@H](c3nc4cc(Cl)cnc4o3)CC[C@H]2C)c1 [Example 71, [(2R,5R)-5-(6-Chloro[1,3]oxazolo[5,4-b]pyridin-2-yl)-2-methylpiperidin-1-yl][5-methyl-2-(2H-1,2,3-triazol-2-yl)phenyl]methanone]"
8.26,7.54,–,"Cc1ccc(-c2ncccn2)c(C(=O)N2C[C@H](c3nc4cc(F)cc(F)c4o3)CC[C@H]2C)c1 [Example 63, [(2R,5R)-5-(5,7-Difluoro-1,3-benzoxazol-2-yl)-2-methylpiperidin-1-yl][5-methyl-2-(pyrimidin-2-yl)phenyl]methanone]"
8.26,8.36,–,"Cc1ccc(-c2ncccn2)c(C(=O)N2C[C@H](c3nc4c(Cl)cccc4o3)CC[C@H]2C)c1 [Example 69, [(2R,5R)-5-(4-Chloro-1,3-benzoxazol-2-yl)-2-methylpiperidin-1-yl][5-methyl-2-(pyrimidin-2-yl)phenyl]methanone]"
8.34,8.15,–,"Cc1ccc(-n2nccn2)c(C(=O)N2C[C@H](c3nc4c(Cl)cccc4o3)CC[C@H]2C)c1 [Example 68, [(2R,5R)-5-(4-Chloro-1,3-benzoxazol-2-yl)-2-methylpiperidin-1-yl][5-methyl-2-(2H-1,2,3-triazol-2-yl)phenyl]methanone]"
8.37,7.61,–,"Cc1ccc(-n2nccn2)c(C(=O)N2C[C@H](c3nc4cc(F)cc(F)c4o3)CC[C@H]2C)c1 [Example 62, [(2R,5R)-5-(5,7-Difluoro-1,3-benzoxazol-2-yl)-2-methylpiperidin-1-yl][5-methyl-2-(2H-1,2,3-triazol-2-yl)phenyl]methanone]"
